Test results as given in DBAASP.
In brackets after ≈: the same amount, converted by molar mass.

What was measured:
Assay in all cases: ≥ marks a high value that may be exact or a test limit, other limits are often not marked, values filed in µg/mL are converted to µM
[1] = tested on: Streptococcus pyogenes M1T1 5448
[2] = tested on: Escherichia coli BL21
[3] = tested on: Pseudomonas aeruginosa PAO1
[4] = tested on: Staphylococcus aureus USA 300
[5] = tested on: Pseudomonas aeruginosa H103
[6] = tested on: Candida albicans
[7] = tested on: Staphylococcus aureus ATCC 25923
[8] = tested on: Salmonella enterica serovar Typhimurium
[9] = tested on: Escherichia coli UB1005
[10] = tested on: Staphylococcus epidermidis
[11] = tested on: Enterococcus faecalis ATCC 29212
[12] = tested on: Staphylococcus aureus MR
[13] = tested on: Pseudomonas aeruginosa ATCC 27853
[14] = tested on: Staphylococcus aureus ATCC 49476

| MIC [1] [µM] | MIC [2] [µM] | MIC [3] [µM] | MIC [6] [µM] | MIC [12] [µM] | MIC [13] [µM] | MIC [14] [µM] | Compound | further results |
| --- | --- | --- | --- | --- | --- | --- | --- | --- |
|  |  |  | 85.3 (≈ 125 µg/mL) |  |  |  | CC[C@H](C)[C@H](NC(=O)[C@@H](NC(=O)[C@@H](NC(=O)[C@H](CCCN=C(N)N)NC(=O)[C@H](CCCN=C(N)N)NC(=O)[C@H](C)NC(=O)[C@H](CC(C)C)NC(=O)[C@@H](N)CCCN=C(N)N)C(C)C)C(C)C)C(=O)N[C@@H](CCCN=C(N)N)C(=O)N[C@H](C(=O)N[C@@H](C)C(=O)N[C@@H](CCCN=C(N)N)C(N)=O)C(C)C [RLARRVVIRVAR] | MIC [5]: ≥ 43 µM; MIC [7]: 43 µM (≈ 63 µg/mL); MIC [8]: 21.2 µM (≈ 31 µg/mL); MIC [9]: 10.9 µM (≈ 16 µg/mL); MIC [10]: 10.9 µM (≈ 16 µg/mL); MIC [11]: 85.3 µM (≈ 125 µg/mL) |
|  |  |  | 11.1 (≈ 19.1 µg/mL) |  |  |  | CC[C@H](C)[C@H](NC(=O)[C@H](CCCCN)NC(=O)[C@H](Cc1c[nH]c2ccccc12)NC(=O)[C@H](CCCNC(=N)N)NC(=O)[C@@H](N)CCCNC(=N)N)C(=O)N[C@H](C(=O)N[C@H](C(=O)N[C@H](C(=O)N[C@@H](CCCNC(=N)N)C(=O)N[C@@H](Cc1c[nH]c2ccccc12)C(=O)N[C@@H](CCCNC(=N)N)C(=O)N[C@@H](CCCNC(=N)N)C(=O)O)[C@@H](C)CC)C(C)C)C(C)C [RRWKIVVIRWRR] | MIC [5]: 5.6 µM (≈ 9.66 µg/mL); MIC [7]: 0.7 µM (≈ 1.21 µg/mL); MIC [8]: 2.8 µM (≈ 4.83 µg/mL); MIC [9]: 1.4 µM (≈ 2.41 µg/mL); MIC [10]: 0.3 µM (≈ 0.517 µg/mL); MIC [11]: 1.4 µM (≈ 2.41 µg/mL) |
|  |  |  | 26.2 (≈ 64 µg/mL) | 26.2 (≈ 64 µg/mL) | 105 (≈ 256 µg/mL) | ≥ 52.3 | CC[C@H](C)[C@H](N)C(=O)N[C@H](C(=O)NCC(=O)NCC(=O)N[C@@H](CC(C)C)C(=O)N[C@@H](Cc1ccccc1)C(=O)N[C@@H](CO)C(=O)N[C@@H](C)C(=O)NCC(=O)N[C@@H](CCCCN)C(=O)N[C@@H](C)C(=O)N[C@H](C(=O)N[C@@H](Cc1cnc[nH]1)C(=O)N[C@@H](CCCN=C(N)N)C(=O)N[C@@H](CC(C)C)C(=O)N[C@H](C(=O)N[C@@H](CCCN=C(N)N)C(=O)N[C@@H](CCCN=C(N)N)C(=O)N[C@@H](CCCN=C(N)N)C(=O)N[C@@H](CCCN=C(N)N)C(=O)N[C@@H](CCCN=C(N)N)C(=O)O)[C@@H](C)CC)[C@@H](C)CC)[C@@H](C)CC [IIGGLFSAGKAIHRLIRRRRR] |  |

Continued, compound first:

| Compound | MIC [1] [µM] | MIC [2] [µM] | MIC [3] [µM] | MIC [6] [µM] | MIC [12] [µM] | MIC [13] [µM] | MIC [14] [µM] | further results |
| --- | --- | --- | --- | --- | --- | --- | --- | --- |
| CC[C@H](C)[C@H](NC(=O)[C@H](CCCN=C(N)N)NC(=O)[C@H](CCC(N)=O)NC(=O)[C@@H](NC(=O)CNC(=O)[C@@H](N)Cc1c[nH]c2ccccc12)[C@@H](C)O)C(=O)N[C@@H](CCCCN)C(=O)N[C@@H](C)C(=O)N[C@@H](Cc1ccc(O)cc1)C(=O)N[C@@H](CC(C)C)C(=O)N[C@@H](CCCN=C(N)N)C(=O)N[C@@H](CCCN=C(N)N)C(=O)N[C@@H](CCC(=O)O)C(=O)N[C@H](C(=O)N[C@@H](CCCN=C(N)N)C(=O)N[C@@H](CCCCN)C(=O)N[C@@H](CCCN=C(N)N)C(=O)NCC(=O)N[C@@H](CCCN=C(N)N)C(=O)N[C@@H](CCCCN)C(=O)N[C@@H](C)C(=O)N[C@H](C(=O)N[C@H](C(=O)N[C@@H](C)C(=O)N[C@@H](Cc1c[nH]c2ccccc12)C(=O)O)[C@@H](C)CC)C(C)C)[C@@H](C)CC [WGTQRIKAYLRREIRKRGRKAVIAW] | 0.5 (≈ 1.56 µg/mL) | 2 (≈ 6.23 µg/mL) | 8 (≈ 24.9 µg/mL) |  |  |  |  |  |
| CC[C@H](C)[C@H](NC(=O)[C@H](CCCCN)NC(=O)[C@H](CCCCN)NC(=O)CNC(=O)[C@H](CCC(=O)O)NC(=O)[C@H](CCC(N)=O)NC(=O)[C@@H](NC(=O)[C@H](CCCCN)NC(=O)[C@H](CCCCN)NC(=O)[C@H](CCCCN)NC(=O)[C@H](CC(C)C)NC(=O)[C@H](CCCN=C(N)N)NC(=O)[C@H](CCC(N)=O)NC(=O)[C@H](Cc1ccccc1)NC(=O)[C@@H](NC(=O)[C@H](CCCCN)NC(=O)[C@H](CCC(=O)O)NC(=O)[C@@H](NC(=O)CNC(=O)[C@H](C)N)[C@@H](C)O)[C@@H](C)CC)[C@@H](C)CC)C(=O)N[C@@H](C)C(=O)N[C@@H](CCCCN)C(=O)N[C@@H](CCCN=C(N)N)C(=O)N[C@@H](C)C(=O)N[C@@H](Cc1c[nH]c2ccccc12)C(=O)O [AGTEKIFQRLKKKIQEGKKIAKRAW] | 0.25 (≈ 0.739 µg/mL) | 1 (≈ 2.96 µg/mL) | 64 (≈ 189 µg/mL) |  |  |  |  | MIC [4]: 8 µM (≈ 23.7 µg/mL) |
| CC[C@H](C)[C@H](NC(=O)[C@H](CCCN=C(N)N)NC(=O)[C@H](CCC(N)=O)NC(=O)[C@H](Cc1c[nH]c2ccccc12)NC(=O)CNC(=O)[C@H](C)N)C(=O)N[C@@H](CCCCN)C(=O)N[C@@H](C)C(=O)N[C@@H](Cc1ccc(O)cc1)C(=O)N[C@@H](CC(C)C)C(=O)N[C@@H](CCCN=C(N)N)C(=O)N[C@@H](CCCN=C(N)N)C(=O)N[C@@H](CCC(=O)O)C(=O)N[C@H](C(=O)N[C@@H](CCCN=C(N)N)C(=O)N[C@@H](CCCCN)C(=O)N[C@@H](CCCN=C(N)N)C(=O)NCC(=O)N[C@@H](CCCN=C(N)N)C(=O)N[C@@H](CCCCN)C(=O)N[C@@H](C)C(=O)N[C@H](C(=O)N[C@H](C(=O)N[C@@H](C)C(=O)N[C@@H](Cc1c[nH]c2ccccc12)C(=O)O)[C@@H](C)CC)C(C)C)[C@@H](C)CC [AGWQRIKAYLRREIRKRGRKAVIAW] | 2 (≈ 6.17 µg/mL) | 1 (≈ 3.08 µg/mL) | 2 (≈ 6.17 µg/mL) |  |  |  |  |  |
| CC[C@H](C)[C@H](NC(=O)[C@H](CC(C)C)NC(=O)[C@H](CCCN=C(N)N)NC(=O)[C@H](Cc1cnc[nH]1)NC(=O)[C@H](C)NC(=O)[C@H](C)NC(=O)[C@H](CCCCN)NC(=O)CNC(=O)[C@H](C)NC(=O)[C@H](CO)NC(=O)[C@H](Cc1ccccc1)NC(=O)[C@H](CC(C)C)NC(=O)CNC(=O)CNC(=O)[C@@H](NC(=O)[C@@H](NC(=O)[C@H](Cc1cnc[nH]1)NC(=O)[C@H](Cc1cnc[nH]1)NC(=O)[C@@H](NC(=O)[C@@H](N)Cc1ccccc1)[C@@H](C)CC)[C@@H](C)CC)[C@@H](C)CC)C(=O)N[C@@H](CCCN=C(N)N)C(=O)N[C@@H](CCCN=C(N)N)C(=O)N[C@@H](CCCN=C(N)N)C(=O)N[C@@H](CCCN=C(N)N)C(=O)N[C@@H](CCCN=C(N)N)C(=O)O [FIHHIIGGLFSAGKAAHRLIRRRRR] |  |  |  | 43.5 (≈ 128 µg/mL) | 21.8 (≈ 64 µg/mL) | 87.1 (≈ 256 µg/mL) | 21.8 (≈ 64 µg/mL) |  |
| CC[C@H](C)[C@H](NC(=O)[C@H](CC(C)C)NC(=O)[C@H](CCCN=C(N)N)NC(=O)[C@H](Cc1cnc[nH]1)NC(=O)[C@H](CCCN=C(N)N)NC(=O)[C@H](C)NC(=O)[C@H](CCCCN)NC(=O)CNC(=O)[C@H](C)NC(=O)[C@H](CO)NC(=O)[C@H](Cc1ccccc1)NC(=O)[C@H](CC(C)C)NC(=O)CNC(=O)CNC(=O)[C@@H](NC(=O)[C@@H](NC(=O)[C@H](Cc1cnc[nH]1)NC(=O)[C@H](Cc1cnc[nH]1)NC(=O)[C@@H](NC(=O)[C@@H](N)Cc1ccccc1)[C@@H](C)CC)[C@@H](C)CC)[C@@H](C)CC)C(=O)N[C@@H](CCCN=C(N)N)C(=O)N[C@@H](CCCN=C(N)N)C(=O)N[C@@H](CCCN=C(N)N)C(=O)N[C@@H](CCCN=C(N)N)C(=O)N[C@@H](CCCN=C(N)N)C(=O)O [FIHHIIGGLFSAGKARHRLIRRRRR] |  |  |  | 42.3 (≈ 128 µg/mL) | ≥ 169 | > 169 | ≥ 169 |  |
| CC[C@H](C)[C@H](NC(=O)[C@H](CCCN=C(N)N)NC(=O)[C@H](CCC(N)=O)NC(=O)[C@@H](NC(=O)[C@H](Cc1c[nH]c2ccccc12)NC(=O)[C@H](C)N)[C@@H](C)O)C(=O)N[C@@H](CCCCN)C(=O)N[C@@H](C)C(=O)N[C@@H](Cc1ccc(O)cc1)C(=O)N[C@@H](CC(C)C)C(=O)N[C@@H](CCCN=C(N)N)C(=O)N[C@@H](CCCN=C(N)N)C(=O)N[C@@H](CCC(=O)O)C(=O)N[C@H](C(=O)N[C@@H](CCCN=C(N)N)C(=O)N[C@@H](CCCCN)C(=O)N[C@@H](CCCN=C(N)N)C(=O)NCC(=O)N[C@@H](CCCN=C(N)N)C(=O)N[C@@H](CCCCN)C(=O)N[C@@H](C)C(=O)N[C@H](C(=O)N[C@H](C(=O)N[C@@H](C)C(=O)N[C@@H](Cc1c[nH]c2ccccc12)C(=O)O)[C@@H](C)CC)C(C)C)[C@@H](C)CC [AWTQRIKAYLRREIRKRGRKAVIAW] | 2 (≈ 6.25 µg/mL) | 2 (≈ 6.25 µg/mL) | 8 (≈ 25 µg/mL) |  |  |  |  |  |
| CC[C@H](C)[C@H](NC(=O)[C@H](CCCN=C(N)N)NC(=O)[C@H](C)NC(=O)[C@H](CCCCN)NC(=O)[C@H](CCCN=C(N)N)NC(=O)CNC(=O)[C@@H](NC(=O)[C@H](CCCCN)NC(=O)[C@H](CCCN=C(N)N)NC(=O)[C@@H](NC(=O)[C@H](CCC(=O)O)NC(=O)[C@H](CCCN=C(N)N)NC(=O)[C@H](CCCN=C(N)N)NC(=O)[C@H](CC(C)C)NC(=O)[C@H](Cc1ccc(O)cc1)NC(=O)[C@H](C)NC(=O)[C@H](CCCCN)NC(=O)[C@@H](NC(=O)[C@H](Cc1c[nH]c2ccccc12)NC(=O)[C@H](CCC(N)=O)NC(=O)[C@H](CCCN=C(N)N)NC(=O)CNC(=O)[C@H](C)N)[C@@H](C)CC)[C@@H](C)CC)C(C)C)C(=O)N[C@@H](C)C(=O)N[C@@H](Cc1c[nH]c2ccccc12)C(=O)O [AGRQWIKAYLRREIRKVGRKARIAW] | 2 (≈ 6.17 µg/mL) | 1 (≈ 3.08 µg/mL) | 16 (≈ 49.3 µg/mL) |  |  |  |  |  |
